Measurements as given in paper PMC10974275, “Pharmacokinetic Interaction of Kratom and Cannabidiol in Male Rats” (Pharmaceutics, 2024).
Where two headings read alike, the source gives them in different places.

Assays:
[1] = Single-dose pharmacokinetics of concomitant cannabidiol product and kratom product; type: in vivo, male Sprague-Dawley rats; conditions: for AUC0–∞/dose / CL/F / Vd/F: Single-Dose; for AUC0–∞/dose: dose-normalized; for CL/F / Vd/F: plasma; for CL/F: read-out: CL/F (apparent oral clearance) (converted); for Vd/F: read-out: V/F (apparent volume of distribution); for AUC(0-t): read-out: AUC0–24
Procedure: (§1) Male Sprague-Dawley rats (weight 250 ± 25 g) were obtained from Envigo (Indianapolis, IN, USA) with indwelling jugular vein catheters. Animals were acclimated for ≥72 h in a temperature- and humidity-controlled vivarium on a 12 h light/dark cycle. All studies were approved by the University of Florida’s Institutional Animal Care and Use Committee (IACUC) and carried out in accordance with Association for Assessment and Accreditation of Laboratory Animal Care International (AAALAC) and National Institute of Health (NIH) guidelines. In the single-dose studies, rats were fasted for 10 h prior to dosing and an additional 2 h post-dose.
(§2) For the single-dose study, rats were pretreated with 50 mg/kg cannabidiol by oral gavage and, after 30 min, were dosed with 0.8 mL/kg OPMS Gold solution. A period of 30 min was observed between doses to reduce the likelihood of interactions between the formulations in the stomach. Rats were connected to an automatic blood collection system (BASi, West Lafayette, IN, USA), and blood samples were taken pre-kratom product dose and 0.08, 0.17, 0.25, 0.5, 1, 2, 3, 4, 6, 8, 12, 18, 24, 30, 36, 42, and 48 h after kratom product dose administration. For the multiple-dose study, rats were pretreated with 25 mg/kg cannabidiol and, after 30 min, were dosed with 0.4 mL/kg OPMS Gold solution every 12 h (0900 and 2100) for a period of 4 days. Blood samples were taken prior to the 0900 dose (24, 48, 72, 96 h). […] Plasma was separated from blood by centrifugation at 850× g for 10 min at 4 °C. Samples were stored at −20 °C until analysis.
(§3) Standards were prepared by adding 2.0 μL of CS or QC stock to 18 μL of blank rat plasma. This generated eight calibration standards (5–500 ng/mL) and four QC standards (5, 8, 200, and 400 ng/mL). After spiking, the standards were vortex-mixed for 5 min at 650 rpm. Analytes were precipitated with 80 μL methanol acidified with 0.05% formic acid containing 25 ng/mL IS-1 and IS-2 (Quenching Solution; QS). Samples were transferred to a 96-well filter plate and centrifuged at 850× g for 2 min at 4 °C. Study samples were prepared in the same manner by aliquoting 20 μL and adding 80 μL QS prior to vortex mixing and filtration.
(§4) Samples were analyzed using previously validated ultraperformance liquid chromatography-tandem mass spectrometry (UPLC-MS/MS) methods for the quantification of cannabinoids and alkaloids in rat plasma. Both methods used a Waters Acquity I-Class UPLC coupled to a Xevo TQ-S micro mass spectrometer (Waters, Milford, MA, USA). The source gas was nitrogen, and the collision gas was argon. The autosampler was maintained at 10 °C.
(§5) For the cannabinoid bioanalytical method, a 1.7 µm, 2.1 x 100 mm C18 BEH column was utilized with a pre-column of the same chemistry (Waters, Milford, MA, USA) held at 40 °C. […] Cannabidiol was detected in positive electrospray ionization mode using multiple reaction monitoring.
(§6) For the peak separations of kratom alkaloids required for quantification, a 1.7 µm, […] × 100 mm C18 BEH column with a pre-column of the same chemistry (Waters, Milford, MA, USA) was utilized and held at 50 °C throughout the analysis. A gradient elution was used with mobile phase of aqueous ammonium acetate buffer [2.5 mM, pH 3.5 (A)] and acetonitrile (B). The gradient was held at 90% A for 1 min and decreased to 60% by 10 min. From 10 to 10.5 min, the percent of A was decreased sharply to 30% and was then set to initial conditions from 10.5 to 11 min to re-equilibrate the column. The alkaloids were detected in positive electrospray ionization mode using multiple reaction monitoring.
The TargetLynx™ application of MassLynx™ was used for data processing and quantification of the UPLC-MS/MS data (Waters, Milford, MA, USA). Phoenix Version 6.4 (Certara, Princeton, NJ, USA) was used to perform a non-compartmental analysis of concentration–time data. GraphPad Prism Version 8 (GraphPad Software, San Diego, CA, USA) was used to generate all figures. […]

[2] = set-up: method as in PMID 33620222; conditions: n = 4, mean ± SEM, cited from earlier work
[3] = Single oral dose pharmacokinetics of kratom product alone (control data from Kamble et al.); conditions: without cannabidiol
[4] = Single oral dose pharmacokinetics of cannabidiol product alone; type: in vivo, male Sprague-Dawley rats; conditions: male, Sprague-Dawley, rat, cannabidiol in plasma, single oral dose of cannabidiol product alone (50 mg/kg), n = 4, mean ± SEM
[5] = Multiple-dose (steady-state) pharmacokinetics of concomitant cannabidiol and kratom product; type: in vivo, male Sprague-Dawley rats; conditions: mean ± SEM; for Accumulation Index / Fluctuation / concentration at 5 days / AUC(0-inf) / AUC / Cmax at 5 days: 5-day q12 h oral 25 mg/kg cannabidiol and kratom product (Eq. 4.7 mg/kg mitragynine); for AUC0–∞/dose / CL/F at 5 days / Vd/F at 5 days: Multiple-Dose; for AUC0–∞/dose: dose-normalized; for concentration at 5 days / CL/F at 5 days / Vd/F at 5 days / AUC(0-inf) / AUC / Cmax at 5 days: male, Sprague-Dawley, rat; for concentration at 5 days / CL/F at 5 days / Vd/F at 5 days / AUC(0-inf) / AUC: plasma; for concentration at 5 days: oral; for CL/F at 5 days / Vd/F at 5 days: po; for CL/F at 5 days: read-out: CL/F (apparent oral clearance) (converted); for Vd/F at 5 days: read-out: V/F (apparent volume of distribution); for AUC(0-inf): from time 0 (96 h) extrapolated to infinity; for AUC: over the dosing interval (12 h); for Cmax at 5 days: maximum plasma concentration at steady-state
Procedure: as §1, §2, §3, §4, §5, §6
The TargetLynx™ application of MassLynx™ was used for data processing and quantification of the UPLC-MS/MS data (Waters, Milford, MA, USA). Phoenix Version 6.4 (Certara, Princeton, NJ, USA) was used to perform a non-compartmental analysis of concentration–time data. GraphPad Prism Version 8 (GraphPad Software, San Diego, CA, USA) was used to generate all figures.

[6] = minor kratom alkaloid/metabolite in plasma, single concomitant dose of cannabidiol and kratom product, n = 5, mean ± SEM
[7] = minor kratom alkaloid/metabolite in plasma, single oral dose of kratom product alone
[8] = cannabidiol, cannabidiol plus kratom product vs cannabidiol product alone, single dose
[9] = male, Sprague-Dawley, rat, po, mean ± SEM
[10] = male, Sprague-Dawley, rat, cannabidiol in plasma, single concomitant oral dose of cannabidiol product (50 mg/kg) and kratom product (9.4 mg/kg mitragynine), n = 5, mean ± SEM
[11] = average plasma concentration at steady-state, read-out: Cavg,ss
[12] = minimum plasma concentration at steady-state, read-out: Cmin,ss
[13] = male, Sprague-Dawley, rat, mitragynine in plasma, single concomitant oral dose of cannabidiol product (50 mg/kg) and kratom product (9.4 mg/kg mitragynine), n = 5, mean ± SEM
[14] = mitragynine in plasma, single oral dose of kratom product alone (9.6 mg/kg mitragynine)
[15] = male, Sprague-Dawley, rat, po, minor kratom alkaloid/metabolite in plasma, single concomitant dose of cannabidiol and kratom product, n = 5, mean ± SEM
[16] = male, Sprague-Dawley, rat, po, minor kratom alkaloid/metabolite in plasma, single concomitant dose of cannabidiol and kratom product, n = 5, mean ± SEM, read-out: Cmax

| SMILES | AUC0–24 [2, 7] [ng·h/mL] | Cmax [2, 7] [ng/mL] | Tmax [2, 7] [h] | AUC0–∞/dose ([1]; mean ± SEM) [ng·h/mL/mg/kg] | CL/F [1, 9] [mL/min/kg] | Vd/F [1, 9] [L/kg] | Accumulation Index [5] | Fluctuation [5] [%] | AUC0–∞/dose [5] [ng·h/mL/mg/kg] | concentration at 5 days [5, 11] [ng/mL] | concentration at 5 days [5, 12] [ng/mL] | CL/F at 5 days [5] [mL/min/kg] | Vd/F at 5 days [5] [L/kg] | AUC(0-inf) [5] [ng·h/mL] | AUC [5] [ng·h/mL] | Cmax at 5 days [5] [ng/mL] | Tmax [1, 15] [h] | AUC(0-t) [1, 15] [ng·h/mL] | Cmax [1, 16] [ng/mL] | also measured |
| --- | --- | --- | --- | --- | --- | --- | --- | --- | --- | --- | --- | --- | --- | --- | --- | --- | --- | --- | --- | --- |
| CC[C@@H]1CN2CC[C@@]3(O)C(=Nc4cccc(OC)c43)[C@@H]2C[C@@H]1/C(=C\OC)C(=O)OC [7-hydroxymitragynine] | 41.0 ± 7.6 | 4.0 ± 0.6 | 3.1 ± 1.7 |  |  |  |  |  |  |  |  |  |  |  |  |  |  |  |  | AUC0–24 [1, 6]: 189.2 ± 27.7 ng·h/mL; Cmax [1, 6]: 17.5 ± 2.3 ng/mL; metabolite to parent (mitragynine) exposure ratio percent ([1]; with cannabidiol, single concomitant dose of cannabidiol and kratom product): 3.5%; metabolite to parent (mitragynine) exposure ratio percent [3]: 3.1% |
| C=C(C)[C@@H]1CCC(C)=C[C@H]1c1c(O)cc(CCCCC)cc1O [Cannabidiol] |  |  |  | 97.8 ± 18.5 | 192 | 164 ± 26.3 | 1.8 ± 0.0 | 219.0 ± 42.7 | 140.8 ± 34.0 | 204 ± 51.3 | 80.9 ± 23.7 | 217 | 192 ± 42.1 | 3520 ± 851 | 2450 ± 615 | 489 ± 96.2 |  |  |  | Cmax [4]: 589 ± 38.3 ng/mL; Tmax [4]: 3.8 ± 1.5 h; AUC(0-t) ([4]; read-out: AUC0–24): 4400 ± 319 ng·h/mL; AUC0–24 Fold Change (90% CI Ratio) [1, 8]: 1.0 (0.8, 1.1); Cmax Fold Change (90% CI Ratio) [1, 8]: 0.8 (0.7, 0.9); range of 90% confidence interval values of AUC0–24 fold change ([1]; cannabidiol, coadministration with kratom vs cannabidiol alone, single dose): 0.8–1.1; Tmax [1, 10]: 6.3 ± 1 h; AUC(0-t) [1, 10]: 4180 ± 614 ng·h/mL; Cmax ([1]; male, Sprague-Dawley, rat, cannabidiol in plasma, single concomitant oral dose of cannabidiol product (50 mg/kg) and kratom product (9.4 mg/kg mitragynine), n = 5, mean ± SEM, read-out: Cmax): 491 ± 69.2 ng/mL |
| CC[C@@H]1CN2CCc3c([nH]c4cccc(OC)c34)[C@@H]2C[C@@H]1/C(=C\OC)C(=O)OC [Mitragynine, mitragynine] |  |  |  | 578.6 ± 187.9 | 38.3 | 25.8 ± 7.5 | 1.4 ± 0.1 | 90.0 ± 11.3 | 605.8 ± 153.1 | 151 ± 34.7 | 91.1 ± 24.9 | 51.7 | 28.7 ± 3.7 | 2910 ± 735 | 1810 ± 417 | 218 ± 40 |  |  |  | Tmax [1, 13]: 17 ± 4.6 h; AUC(0-t) [1, 13]: 5350 ± 1150 ng·h/mL; Cmax ([1]; male, Sprague-Dawley, rat, mitragynine in plasma, single concomitant oral dose of cannabidiol product (50 mg/kg) and kratom product (9.4 mg/kg mitragynine), n = 5, mean ± SEM, read-out: Cmax): 253 ± 68.3 ng/mL; Fluctuation ([5]; listed as mitragynine): ~100%; AUC0–24 [2, 14]: 1306.8 ± 126.1 ng·h/mL; Cmax [2, 14]: 111.9 ± 15.6 ng/mL; Tmax [2, 14]: 3.1 ± 1.7 h |
| C=C[C@H]1CN2CCc3c([nH]c4cccc(OC)c34)[C@@H]2C[C@@H]1/C(=C\OC)C(=O)OC [Paynantheine, paynantheine] |  | 3.0 ± 1.7 | 0.08 ± 0.0 |  |  |  |  |  |  |  |  |  |  |  |  |  | 16.2 ± 4.9 | 290 ± 96.4 | 19.8 ± 5.8 |  |
| CC[C@@H]1CN2CCc3c([nH]c4cccc(OC)c34)[C@H]2C[C@@H]1/C(=C\OC)C(=O)OC [Speciociliatine, speciociliatine] | 222.7 ± 22.2 | 23.8 ± 1.4 | 3.2 ± 1.6 |  |  |  |  |  |  |  |  |  |  |  |  |  | 17 ± 5.9 | 990 ± 93.7 | 68.1 ± 5.9 |  |
